The nature of data set [1]: Serum insulin (PK) profile after subcutaneous injection, Human Insulin ELISA. The note with it: 5 U/kg. Format: in vivo, rat. A general note: In an ELISA, binding on a coated surface is turned into a signal by an enzyme label.
Procedure: Blood samples were collected via tail vein bleeding at 0 minutes and at 30, 60, 90, 120, 150, 180, 210, 240, and 300 minutes after injection. Blood from each timepoint was centrifuged at 4 C to collect the serum. Serum insulin concentrations were subsequently measured with a commercially available ELISA kit (Human Insulin ELISA, Mercodia, Uppsala, Sweden).
This example describes the serum insulin and blood glucose depression profiles obtained for a subcutaneously administered exemplary conjugate. […] In this case, the conjugate was injected at 5 U/kg behind the neck of fasted normal non-diabetic rats (Male Sprague-Dawley, 400-500 g, n=3). […] Serum insulin concentrations were subsequently measured with a commercially available ELISA kit (Human Insulin ELISA, Mercodia, Uppsala, Sweden).
In each case, the conjugate or insulin lispro was injected at 3.5 U/kg behind the neck of fasted normal non-diabetic rats (Male Sprague-Dawley, 400-500 gm, n=6). […] Serum insulin concentrations were subsequently measured with a commercially available ELISA kit (Human Insulin ELISA, Mercodia, Uppsala, Sweden).
Blood samples were collected via tail vein bleeding at 0 minutes and at 30, 60, 90, 120, 150, 180, 210, 240, and 300 minutes after injection. […] Serum insulin concentrations were subsequently measured with a commercially available ELISA kit (Human Insulin ELISA, Mercodia, Uppsala, Sweden).
For data set [2], the system named is fasted normal non-diabetic rats (Male Sprague-Dawley). Put plainly: Blood glucose depression profile after subcutaneous injection. Format: in vivo, rat.
Procedure: Subcutaneous injections of the insulin-dextran were administered using 0.25 ml of a sterilized 1×PBS solution (20 U of equivalent insulin/ml) behind the neck of fasted normal non-diabetic rats (Male Sprague-Dawley, 200-250 g, n=4). Blood samples were collected via tail vein bleeding at −15 and 0 minutes, and at 15, 30, 45, 60, 90, 120, 180, 240, 300 and 360 minutes after injection. Blood glucose values were measured using commercially available test strips (Precision Xtra, Abbott Laboratories, Abbott Park, Ill.).
This example evaluates the in vivo pharmacodynamic profile of subcutaneously administered insulin-glycogen. […] The bioactivity of the insulin-glycogen conjugate was evaluated by injecting a 2.5 equivalent U of insulin/kg dose behind the neck of fasted normal non-diabetic rats (Male Sprague-Dawley, 200-250 g, n=4). Blood samples were collected via tail vein bleeding at −15 and 0 minutes, and at 15, 30, 45, 60, 90, 120, 180, 240, 300 and 360 minutes after injection. Blood glucose values were measured using commercially available test strips (Precision Xtra, Abbott Laboratories, Abbott Park, Ill.).
The mark [3] stands for this setting: 0.25 ml of 20 U of equivalent insulin/ml.

For “B29-substituted conjugate: synthesized using TSAT-C6 as the framework, AEM as the affinity ligand, and recombinant human insulin as the drug”, in data set [1], the “pharmacokinetic profile (serum insulin) compared to RHI and B1-substituted conjugate” value is “statistically indistinguishable from that of RHI”.
Consider “insulin-dextran: comparative insulin-dextran conjugate (dextran MW 70K) made by CNBr coupling, 10% (w/w) insulin”, for which, in data set [2] (setting [3]), the “time serum glucose levels remain depressed post injection” value is “at least five” and the “time to reach the glucose nadir (Tnadir)” value was “about 3 hours”.
In the case of “insulin-glycogen: comparative insulin-glycogen conjugate from oyster glycogen Type II according to US 20070099820”, in data set [2] (2.5 equivalent U of insulin/kg), the “glucose lowering compared to insulin-dextran conjugates” value was “lower glucose levels much more rapidly and to a greater extent”.

Values taken from patent publication US8940690B2, “Synthetic conjugates and uses thereof” (National Institutes of Health (NIH), priority 2009, dated 2015).
